Experimental data taken from ChEMBL document CHEMBL1131439, “Prediction of binding affinities for TIBO inhibitors of HIV-1 reverse transcriptase using Monte Carlo simulations in a linear response method” (J Med Chem, 1998).

Target: Human immunodeficiency virus type 1 reverse transcriptase (Human immunodeficiency virus 1, UniProt Q72547)
Assay: Inhibition of HIV-1 reverse transcriptase.

| IC50 [µM] | SMILES |
| --- | --- |
| 3.16 | CC(C)=CCN1Cc2cccc3nc(O)n(c23)C[C@@H]1C |
| 1.14 | CC(C)=CCN1Cc2c(C#N)ccc3[nH]c(=O)n(c23)C[C@@H]1C |
| 0.034 | CC(C)=CCN1Cc2cc(Cl)cc3[nH]c(=S)n(c23)C[C@@H]1C |
| 0.437 | C#Cc1ccc2[nH]c(=O)n3c2c1CN(CC=C(C)C)[C@@H](C)C3 |
| 0.0339 | COc1ccc2[nH]c(=S)n3c2c1CN(CC=C(C)C)[C@@H](C)C3 |
| 0.044 | CC(C)=CCN1Cc2cccc3[nH]c(=S)n(c23)C[C@@H]1C |
| 0.0058 | CC(C)=CCN1Cc2c(F)ccc3[nH]c(=S)n(c23)C[C@@H]1C |
| 0.989 | CC(C)=CCN1Cc2c(C)ccc3[nH]c(=O)n(c23)C[C@@H]1C |
| 0.0563 | CC(C)=CCN1Cc2c(C#N)ccc3[nH]c(=S)n(c23)C[C@@H]1C |
| 0.0295 | C#Cc1ccc2[nH]c(=S)n3c2c1CN(CC=C(C)C)[C@@H](C)C3 |
| 0.0136 | CC(C)=CCN1Cc2c(C)ccc3[nH]c(=S)n(c23)C[C@@H]1C |

| SMILES | IC50 [µM] |
| --- | --- |
| CC(C)=CCN1Cc2c(Cl)ccc3[nH]c(=S)n(c23)C[C@@H]1C [TIVIRAPINE] | 0.0043 |
